Experimental data taken from patent US6096725A, “Methods of using αGal oligosaccharides as immune system targeting agents” (Neose Technologies, Inc., priority 1997, dated 2000).
Where two headings read alike, the source gives them in different places.

Key:
[1] = system: anti-αGal IgG and IgM antibodies; experiment: In vitro mouse laminin ELISA: soluble oligosaccharides as neutralizers of anti-αGal antibodies; type: binding; conditions: serum pre-incubated with oligosaccharide 1 hour 37° C.; result in words
Text: In vitro laminin ELISA evaluation of αGal oligosaccharides as neutralizers of anti-αGal antibodies. Mouse laminin is a basement membrane glycoprotein that expresses 50-70 oligosaccharides terminating in Galα1-3Gal, i.e., the αGal motif (Arumugham et al., 1986, Biochem. Biophys. Aeta 883:112). In this assay, immobilization of mouse laminin on microtiter plates serves as a capture ligand for anti-αGal antibodies. […] The example provides a method by which to determine the ability of αGal oligosaccharides and pharmaceutically acceptable derivative of the invention to bind to anti-αGal antibodies and to thereby remove these antibodies from the serum, neutralize anti-αGal antibodies, and/or target anti-αGal directed complement-mediated lytic attack to specific tissue or cell types. The example also provides a method by which the effectiveness of the methods of the invention can be evaluated and dosages determined.
Sera were mixed with serial dilutions of αGal oligosaccharides (αGal-CHO) at 37° C. for 1 hour, then added to mouse laminin-coated microtiter plates and incubated for 1 hour to allow binding. The microtiter plates were coated with 20 μg/mL mouse laminin in 50 mM NaHCO3 buffer, pH 9.5 at 4° C. overnight, blocked with SuperBlock solution (Pierce) for 2 hours, and then washed 3 times with SuperBlock solution. After washing excess serum away, bound IgG and IgM was measured by adding goat anti-human IgG (or IgM) conjugated to alkaline phosphatase and incubating for 1 hour, washing, and adding substrate (pNPP).

[2] = system: mouse endothelial cell line MAE; experiment: Cytotoxicity of baboon serum against MAE cells with exogenously added αGal pentasaccharide; type: cell-based
Procedure: FIG. 4 Cytotoxicity of serum from a baboon receiving αGal pentasaccharide (αGal-LNnT) intravenously. Shaded circles represent cytotoxicity of serum as recovered from baboon against mouse endothelial cell line MAE. Other lines indicate varying concentrations of exogenously added αGal-pentasaccharide into cytotoxicity assay. Added concentrations of the αGal pentasaccharide are depicted as follows: 2.0 mM, open circle; 1.0 mM, ×; 0.5 mM, diamond; and 0.25 mM, open square. […] Sera were incubated with serial dilutions of αGal oligosaccharides at 37° C. for 1 hour, then added to αGal-expressing monolayers (pig kidney cells, PK-15) in Terasaki plates for 1 hour at 37° C. Cytotoxicity was mediated by either endogenous complement, or the sera were de-complemented (heat inactivated for 30 minutes at 56° C.) and exogenous (rabbit) complement was added. After washing away excess serum, the viable dye mix "live-dead" (calcein AM/ethidium homodimer (Molecular Probes Inc., Eugene Oreg.)) was added and monolayers were scored for viability by fluorescence microscopy. Three Baboons were outfitted with indwelling venous and arterial catheters to the femoral vessels, and held in place with the aid of a jacket. Oligosaccharides were administered through the catheter in a 15 minute continuous infusion.

[3] = parameters: species or system baboon; conditions: in vivo
Procedure: (§1) The two xenotransplant baboons were outfitted with an indwelling catheter to the femoral vein to infuse compound and a catheter to the femoral artery for blood sampling. Following the transplant procedure, but just prior to providing circulatory access to the xenograft, the oligosaccharide was administered by i.v. pump through the catheter in a 15 min loading dose, followed by continuous 4 hour infusion to achieve 2.5 mM blood concentration (as determined by calculations presented in Table 2). […] Blood specimens collected for plasma were immediately centrifuged and the plasma withdrawn and stored frozen at -20° C. Blood specimens collected for serum were clotted at 4° C. overnight and the withdrawn serum frozen at -20° C. The αGal pentasaccharide was prepared according to the enzymatic methods set forth in example 6.2 and stored as a dry, white, solid powder. The oligosaccharide was dissolved in 250 mL sterile infusion grade saline to a concentration of 0.154 g/mL, or 177 mM. Induction anesthesia was with ketamine hydrochloride 5 mg/kg/body weight in and 0.5 mg/kg of xylazine iv. Intravenous fluid of approximately 20 ml/kg body weight was given during the course of the operative procedure through either a peripheral or central vein. Atropine 0.5 mg/kg was given iv. […] Arterial pressure was monitored in the recipient baboon by intermittent automatic cuff recordings.

[4] = Pharmacokinetics after 15 minute intravenous bolus in baboons; type: in vivo, baboon; conditions: for clearance / half-life / Vd: baboon, plasma, iv, 500 umol/kg, 0.5 mMol/Kg 15 minute i.v. bolus; for Vd: read-out: Volume of Distribution
Procedure: The pharmacokinetics of the αGal trisaccharide compositions and the αGal pentasaccharide compositions were determined by delivering to one baboon by 15 minute intravenous bolus, 0.5 mMol/Kg of one oligosaccharide and 48 hours later, delivering 0.5 mmol/Kg of the second oligosaccharide, and for a second baboon, delivering the oligosaccharides according to the same procedure, but in the reverse order.
Three Baboons were outfitted with indwelling venous and arterial catheters to the femoral vessels, and held in place with the aid of a jacket. Oligosaccharides were administered through the catheter in a 15 minute continuous infusion.
The clearance is used to calculate the infusion rate needed to maintain a desired drug concentration. The half-life describes how quickly concentrations diminish with time. Mathematical formulations known in the art were applied to estimate the pharmacokinetic parameters of the αGal trisaccharide and αGal pentasaccharide. […] Compared to other drugs, the volumes of distribution of these oligosaccharides are low, less than the extravascular water volume (<400 mL/kg). The clearance is typical of compounds eliminated by GFR (glomerular filtration rate).

anti-αGal antibody = experiment: ELISA of reactive anti-αGal antibody in sera of xenotransplanted baboons; type: binding, baboon; conditions: period during which serum concentration exceeded 1 mM; data not shown
Procedure: as §1, with “recordings. […]” for “recordings.”

[5] = to attain 0.5 mM steady state serum concentration
[6] = to attain 1.0 mM steady state serum concentration
[7] = to attain 2.0 mM steady state serum concentration

CC(=O)N[C@H]1[C@H](O[C@H]2[C@@H](O)[C@@H](CO)O[C@@H](O[C@H]3[C@H](O)[C@@H](O)C(O)O[C@@H]3CO)[C@@H]2O)O[C@H](CO)[C@@H](O[C@@H]2O[C@H](CO)[C@H](O)[C@H](O[C@H]3O[C@H](CO)[C@H](O)[C@H](O)[C@H]3O)[C@H]2O)[C@@H]1O (some centres unmarked) [αGal pentasaccharide, Galα1-3Galβ1-4GlcNAcβ1-3Galβ1-4Glc]
Inhibition of anti-αGal IgG and IgM antibody binding to immobilized mouse laminin [1]: slightly better inhibitor of both IgG and IgM binding to laminin than αGal disaccharide
Inhibition of MAE cell cytotoxicity, in words ([2]; baboon serum (FIG. 4), similar results with pig PK15 cells): fully inhibits MAE cell cytotoxicity
Concentration of αGal pentasaccharide that inhibits serum cytotoxicity of MAE cells ([2]; baboon serum, exogenously added oligosaccharide (FIG. 4)): greater than 1 mM
Blood concentration relative to prediction from earlier pharmacokinetic infusions [3]: approximately twice what was predicted
clearance ([4]; baboon 1003): 2.93 mL/min/kg
half-life ([4]; baboon 1003): 47.3 min
Vd ([4]; baboon 1003): 0.199 L/kg
clearance ([4]; baboon 1015): 3.97 mL/min/kg
half-life ([4]; baboon 1015): 40.2 min
Vd ([4]; baboon 1015): 0.23 L/kg
Calculated continuous infusion, total amount [4, 5]: 1.44 Kg/14 days
Calculated loading dose [4, 5]: 4.12 g/20 Kg baboon
Calculated loading dose (bolus or 15 min infusion) [4, 5]: 206 mg/kg
Calculated continuous infusion, total amount [4, 6]: 2.88 Kg/14 days
Calculated loading dose [4, 6]: 8.24 g/20 Kg baboon
Calculated loading dose (bolus or 15 min infusion) [4, 6]: 412 mg/kg
Calculated continuous infusion, total amount [4, 7]: 5.74 Kg/14 days
Calculated loading dose [4, 7]: 16.48 g/20 Kg baboon
Calculated loading dose (bolus or 15 min infusion) [4, 7]: 824 mg/kg
Reactive anti-αGal antibody titer by ELISA (mouse laminin, α-Gal-albumin neoglycoconjugates, PK-15 cells) (anti-αGal antibody): pronounced reduction in the anti-αGal antibody titer
